Patent publication US7238775B2, “Receptor(SSTR4)-selective somatostatin analogs” (The Salk Institute for Biological Studies, priority 2002, dated 2007)
“And” between values parts separate entries of the source, which are not always exact repeats. Equal entries are not always repeated. Bridge positions count the residues as written; N and C are the ends. Peptide text beside a SMILES is read from it.

Key:
Assay in all cases: Displacement of 125I-[Leu8,D-Trp22,Tyr25]SRIF-28 from cloned receptor, membrane pellet autoradiography
Format in all cases: binding
hSSTR1 = target: T1, hSSTR1 (Homo sapiens, UniProt P30872)
T1 construct: expressed in transfected cells; host or cells: CHO-K1 cells and CCL39 cells
Procedure: (§1) In vitro Bioassay: The effects of the various somatostatin analogs are tested in vitro for their ability to bind to isolated cloned receptors expressed on CHO-K1 cells and CCL39 cells. CHO-K1 cells are grown in Ham's F-12 medium, and CCL39 cells are grown in Dulbecco's modified Eagle's medium/Ham's F-12(1:1) mix, supplemented with 10% fetal bovine serum, 100 U/ml penicillin and 100 μg/ml streptomycin, in humidified air containing 5% CO2 at 37° C.
(§2) Cells are washed twice with and scraped into ice-cold 0.05 M Tris-HCl (pH 7.4), collected by centrifugation, and homogenized using a rotor/stator/system in the same buffer. After centrifugation at 120 g for 5 min at 4° C., the supernatant is collected and centrifuged again at 48,000 g for 30 min at 4° C. The resulting pellet is resuspended in ice-cold Tris buffer, transferred into a microfuge tube, and centrifuged at 20,000 g for 15 min at 4° C. After withdrawal of the supernatant, the membrane pellet is stored at −80° C.
Receptor autoradiography is performed on 20 μm thick cryostat sections of the membrane pellets, mounted on microscope slides, and then stored at −20° C. […] […] […] IC50 values are calculated after quantification of the data using a computer-assisted image processing system as known in this art.
(§3) The numbers in parentheses indicate the number of times the particular binding test was carried out.

hSSTR2 = target: T2, hSSTR2 (Homo sapiens, UniProt P30874)
T2 construct: expressed in transfected cells; host or cells: CHO-K1 cells and CCL39 cells
Procedure: as §1, §2
(§4) Receptor autoradiography is performed on 20 μm thick cryostat sections of the membrane pellets, mounted on microscope slides, and then stored at −20° C. […] Increasing concentrations of the unlabeled peptide are used ranging from 0.1-1000 nM. […] IC50 values are calculated after quantification of the data using a computer-assisted image processing system as known in this art.
as §3

hSSTR3 = target: T3, hSSTR3 (Homo sapiens, UniProt P32745)
T3 construct: expressed in transfected cells; host or cells: CHO-K1 cells and CCL39 cells
Procedure: as §1, §2, §4, §3

hSSTR4 = target: T4, hSSTR4 (Homo sapiens, UniProt P31391); details: for IC50: inhibition of 125I-SRIF-28 radioligand binding, cloned human receptor
T4 construct: expressed in transfected cells; host or cells: CHO-K1 cells and CCL39 cells
Procedure: as §1, §2, §4, §3

hSSTR5 = target: T5, hSSTR5 (Homo sapiens, UniProt P35346)
T5 construct: expressed in transfected cells; host or cells: CHO-K1 cells and CCL39 cells
Procedure: as §1, §2, §4, §3

T4 sequence (P31391 whole entry): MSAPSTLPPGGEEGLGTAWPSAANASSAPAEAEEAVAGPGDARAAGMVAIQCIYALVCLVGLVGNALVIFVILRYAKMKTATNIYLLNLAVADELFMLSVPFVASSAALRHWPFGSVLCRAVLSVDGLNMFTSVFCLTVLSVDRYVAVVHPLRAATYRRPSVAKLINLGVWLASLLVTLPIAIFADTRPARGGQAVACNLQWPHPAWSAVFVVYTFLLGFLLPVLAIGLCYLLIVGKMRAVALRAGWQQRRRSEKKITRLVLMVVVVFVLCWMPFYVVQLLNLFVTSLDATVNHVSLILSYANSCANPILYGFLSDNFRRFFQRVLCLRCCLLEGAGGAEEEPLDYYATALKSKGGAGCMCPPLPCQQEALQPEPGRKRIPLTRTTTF
T5 sequence (P35346 whole entry): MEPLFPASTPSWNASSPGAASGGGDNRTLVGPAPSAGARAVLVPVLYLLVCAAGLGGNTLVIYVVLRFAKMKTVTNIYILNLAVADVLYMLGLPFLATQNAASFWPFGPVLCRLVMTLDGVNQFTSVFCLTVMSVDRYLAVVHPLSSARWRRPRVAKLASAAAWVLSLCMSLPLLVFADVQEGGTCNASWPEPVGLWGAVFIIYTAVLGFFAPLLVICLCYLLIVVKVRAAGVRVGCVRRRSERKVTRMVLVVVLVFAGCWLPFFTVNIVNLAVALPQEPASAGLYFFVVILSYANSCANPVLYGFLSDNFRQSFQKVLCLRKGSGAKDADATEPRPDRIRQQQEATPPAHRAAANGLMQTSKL
T3 sequence (P32745 whole entry): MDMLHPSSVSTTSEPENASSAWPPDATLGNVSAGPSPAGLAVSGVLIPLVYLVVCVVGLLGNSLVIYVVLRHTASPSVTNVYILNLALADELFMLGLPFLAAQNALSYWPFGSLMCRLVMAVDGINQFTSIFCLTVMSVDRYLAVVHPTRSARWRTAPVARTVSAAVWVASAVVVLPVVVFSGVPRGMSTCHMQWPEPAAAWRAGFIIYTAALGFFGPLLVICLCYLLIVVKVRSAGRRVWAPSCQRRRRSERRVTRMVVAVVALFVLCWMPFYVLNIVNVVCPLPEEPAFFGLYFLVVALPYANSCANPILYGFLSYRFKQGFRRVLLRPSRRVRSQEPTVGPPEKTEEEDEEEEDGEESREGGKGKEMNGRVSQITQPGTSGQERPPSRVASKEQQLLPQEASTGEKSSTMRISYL
T1 sequence (P30872 whole entry): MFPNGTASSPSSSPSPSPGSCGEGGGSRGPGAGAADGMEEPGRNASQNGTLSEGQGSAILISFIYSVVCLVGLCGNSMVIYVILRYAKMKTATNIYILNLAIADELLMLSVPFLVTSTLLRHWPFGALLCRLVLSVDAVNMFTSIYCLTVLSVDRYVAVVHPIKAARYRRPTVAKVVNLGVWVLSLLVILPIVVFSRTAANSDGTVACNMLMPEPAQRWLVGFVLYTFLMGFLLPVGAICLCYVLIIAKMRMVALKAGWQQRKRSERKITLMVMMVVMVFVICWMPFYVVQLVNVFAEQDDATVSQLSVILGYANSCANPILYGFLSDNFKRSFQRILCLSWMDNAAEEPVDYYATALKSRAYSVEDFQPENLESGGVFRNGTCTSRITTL
T2 sequence (P30874 whole entry): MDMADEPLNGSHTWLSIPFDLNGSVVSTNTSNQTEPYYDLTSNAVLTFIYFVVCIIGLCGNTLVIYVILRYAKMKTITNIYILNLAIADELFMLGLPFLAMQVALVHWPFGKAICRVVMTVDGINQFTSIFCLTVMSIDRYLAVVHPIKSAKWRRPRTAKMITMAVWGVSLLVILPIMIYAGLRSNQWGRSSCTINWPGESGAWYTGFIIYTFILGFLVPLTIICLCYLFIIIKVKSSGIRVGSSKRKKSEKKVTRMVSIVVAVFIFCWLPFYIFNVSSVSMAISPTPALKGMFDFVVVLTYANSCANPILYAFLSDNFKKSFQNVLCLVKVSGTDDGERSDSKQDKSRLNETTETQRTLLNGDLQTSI

concentration below which it does not bind to human SSTR1 (hSSTR1) [nM]	concentration below which it does not bind to human SSTR2 (hSSTR2) [nM]	concentration below which it does not bind to human SSTR3 (hSSTR3) [nM]	concentration below which it does not bind to human SSTR5 (hSSTR5) [nM]	SMILES	effect on binding of the SRIF-28 radioligand to human SSTR1 (hSSTR1; at 100 nM)	effect on binding of the SRIF-28 radioligand to human SSTR2 (hSSTR2; at 100 nM)	effect on binding of the SRIF-28 radioligand to SSTR3 (hSSTR3; at 100 nM)	selectivity in binding to SSTR4 compared with the other 4 receptors (in words) (hSSTR4)	IC50 (hSSTR4)	effect on binding of the SRIF-28 radioligand to SSTR5 (hSSTR5; at 100 nM)	IC50 (hSSTR5; inhibition of 125I-SRIF-28 radioligand binding, cloned human receptor) [nM]
–	–	–	–	C[C@@H](O)[C@@H]1NC(=O)[C@H](CCCCN)NC(=O)[C@H](Cc2c[nH]c3ccccc23)NC(=O)[C@H](Cc2ccc(N)cc2)NC(=O)[C@H](Cc2ccccc2)NC(=O)[C@@H](N)CSSC[C@@H](C(=O)O)NC(=O)[C@H](Cc2ccccc2)NC1=O [Peptide No. 1, (cyclo)H-Cys-Phe-4Aph-Trp-Lys-Thr-Phe-Cys-OH]	minimal effects	minimal effects	very minimal effect	selectively bound to SSTR4	~1.2 nM and 1.2 nM	very minimal effect	1000
≥ 750	≥ 750	≥ 750	≥ 630	C[C@@H]1NC(=O)[C@H](Cc2ccccc2)NC(=O)[C@@H](N)CSSC[C@@H](C(=O)O)NC(=O)[C@H](Cc2ccccc2)NC(=O)[C@H]([C@@H](C)O)NC(=O)[C@H](CCCCN)NC(=O)[C@H](Cc2c[nH]c3ccccc23)NC1=O [Peptide No. 12] (H-CFAWKTFC-OH; disulfide 1-8)	–	–	–	likewise selective	~0.84 nM and 0.84 nM	–	–
